In brackets after ≈: the same amount, converted by molar mass. Where two headings read alike, the source gives them in different places.
Columns and labels:
E. coli BAA-2452 = test: Checkerboard assay, CRE E. coli BAA-2452 (NDM-1); assay type: cell-based, Escherichia coli; conditions: NDM-1 strain; over the susceptibility breakpoint
Experimental: (§1) Checkerboard assays were used to determine the synergistic effect between PEG350-BPEI or 600 Da BPEI and antibiotics against drug resistant strains growing in cation-adjusted Mueller-Hinton broth (CAMHB). […] Cells were grown at 37° C. The change in OD600 (optical density at 600 nm) was measured and recorded after 24 hr of treatment. Each checkerboard trial was done in triplicate using sterile Greiner CellStar™ flat bottom polystyrene plates, catalog #655180.

K. pneumoniae BAA-2146 = test: Checkerboard assay, CRE K. pneumoniae BAA-2146 (NDM-1); assay type: cell-based, Klebsiella pneumoniae; conditions: NDM-1 strain; over the susceptibility breakpoint
Experimental: as §1

[1] = system: HEKa cells (primary human epithelial keratinocytes); test: Cytokine release (IL-8, IL-6, TNF-alpha) by HEKa cells, Quantikine ELISA; assay type: cell-based; conditions: PG or LPS 5 μg/mL, 24 hr; for TNF-α concentration released by HEKa cells: untreated control <10; for IL-6 concentration released by HEKa cells: untreated control <50
Experimental: (§2) Materials included HEKa cells (primary human epithelial keratinocytes; Invitrogen), Epilife Medium and growth supplement (Invitrogen), lipopolysaccharides from Escherichia coli O111:B4 (Sigma), peptidoglycan from Staphylococcus aureus (Sigma), and Human (IL-8/CXCL8, IL-6, TNF-alpha) Quantikine ELISA Kits (R&D). HEKa cells were seeded in T-75 tissue culture flasks with Epilife media supplemented with human keratinocyte growth supplement 100 ug/mL and 100 U/mL of pen/strep and incubated at 37° C. in a CO2 incubator. Fresh media was replaced every 2 days. Until the cell confluence reach 80-90%, they were split into a new passage. To avoid cell senescence, all experiments were performed with cells at passage 3-7. HEKa cells were cultured in a new 24-well plate until 80-90% confluence (total V=1 mL/well). […] The cell media was collected in 1.5 mL Eppendorf microtubes and stored at −20° C. until ELISA assays were performed. Concentrations of IL-8, IL-6, TNF-α cytokines released into the media were quantified followed the instructions of Quantikine Colorimetric ELISA assay kits (R&D Systems). Absorbance was measured at 450 nm and 570 nm. Final corrected absorbance was the subtraction […].
as §2, with “HEKa” for “Materials included HEKa cells (primary human epithelial keratinocytes; Invitrogen), Epilife Medium and growth supplement (Invitrogen), lipopolysaccharides from Escherichia coli O111:B4 (Sigma), peptidoglycan from Staphylococcus aureus (Sigma), and Human (IL-8/CXCL8, IL-6, TNF-alpha) Quantikine ELISA Kits (R&D). HEKa”, “senescent,” for “senescence,”, “volume=1” for “V=1”, “IL-8 cytokine” for “IL-8, IL-6, TNF-α cytokines”

[2] = system: K. pneumoniae BAA-1705(blaKPC+/blaNDM−); test: Checkerboard assay, CRE K. pneumoniae BAA-1705 (blaKPC+/blaNDM-); assay type: cell-based, Klebsiella pneumoniae; conditions: FIGS. 11A and 11C
Experimental: as §1

PA OU19 [3] = test: MicroScan Walkaway MIC panel, PA OU19; assay type: cell-based, P. aeruginosa
MRSA OU6 [4] = test: MicroScan Walkaway MIC panel, MRSA OU6; assay type: cell-based, Staphylococcus aureus; conditions: for MIC: Staphylococcus aureus
Source text: (§3) The multi-drug resistance characteristics of the clinical isolates was confirmed using the Beckman Coulter MicroScan Walkaway™ 96plus with the PC33 gram positive panel. The MIC values are listed below.

MRSA OU11 [5] = test: MicroScan Walkaway MIC panel, MRSA OU11; assay type: cell-based, Staphylococcus aureus; conditions: for MIC: Staphylococcus aureus
Source text: as §3

PA OU19 [6] = test: Checkerboard assay erythromycin + 600-Da BPEI, PA OU19; assay type: cell-based, P. aeruginosa
Experimental: (§4) Checkerboard assays were conducted to identify synergy between BPEI and antibiotics against bacteria. Serial dilutions of antimicrobial agents (BPEI and antibiotic solutions) were added to a 96-well microtiter plate with 100 μL CAMHB per well. Untreated control and positive control (5% bleach) were also conducted. Bacterial inoculation (5×10^5 CFU/mL) from an overnight culture was added to the plate (1 μL/well) and incubated at 37° C. for 20 hr. The change in optical density at 600 nm (ΔOD600) was measured using a Tecan Infinite M20 plate reader immediately after inoculation Minimum inhibitory concentration (MIC) of each drug is determined as the lowest concentration that inhibited cell growth (ΔOD600<0.05). Fractional inhibitory concentration index (FICI) and synergistic effects are determined using EUCAST guidelines: synergy (FICI≤0.5), additivity (0.5<FICI<1), and indifference (FICI>1). Each assay was done in triplicate.

MRSA OU6 [7] = test: Checkerboard assay erythromycin + 600-Da BPEI, MRSA OU6; assay type: cell-based, Staphylococcus aureus; conditions: for MIC Antibiotic: MRSA OU6, antibiotic alone
Experimental: as §4

MRSA OU11 [8] = test: Checkerboard assay erythromycin + 600-Da BPEI, MRSA OU11; assay type: cell-based, Staphylococcus aureus; conditions: for MIC Antibiotic: MRSA OU11, antibiotic alone
Experimental: as §4

[9] = system: Pseudomonas aeruginosa strain BAA-47; test: Checkerboard assay azithromycin + 600-Da BPEI, P. aeruginosa BAA-47; assay type: cell-based
Experimental: as §4

[10] = Pseudomonas aeruginosa, read-out: MIC
[11] = MRSA OU6, MicroScan, read-out: MIC
[12] = MRSA OU11, MicroScan, read-out: MIC
[13] = PA OU19, erythromycin + 600-Da BPEI
[14] = MRSA OU6, erythromycin + 600-Da BPEI
[15] = MRSA OU11, erythromycin + 600-Da BPEI

C[C@@H](O)[C@H]1C(=O)N2C(C(=O)O)=C(SCCN=CN)C[C@H]12 [imipenem]
MIC of the carbapenem without potentiator (E. coli BAA-2452): > 2 µg/mL | MIC of the carbapenem without potentiator (K. pneumoniae BAA-2146): > 2 µg/mL

peptidoglycan [PG]
TNF-α concentration released by HEKa cells [1]: ~30 pg/mL | IL-6 concentration released by HEKa cells [1]: ~350 pg/mL

C[C@@H](O)[C@H]1C(=O)N2C(C(=O)O)=C(S[C@@H]3CN[C@H](C(=O)N(C)C)C3)[C@H](C)[C@H]12 [meropenem]
MIC of the carbapenem without potentiator (E. coli BAA-2452): > 8 µg/mL | susceptibility of the strain to the carbapenem [2]: resistant | susceptibility interpretation (PA OU19 [3]): resistant | MIC (PA OU19 [3]; [10]): 8 µg/mL (≈ 20.9 µM) | MIC of the carbapenem without potentiator (K. pneumoniae BAA-2146): > 8 µg/mL

Cc1onc(-c2ccccc2)c1C(=O)N[C@@H]1C(=O)N2[C@@H]1SC(C)(C)[C@@H]2C(=O)O [oxacillin]
susceptibility interpretation (MRSA OU6 [4]; MRSA OU6, MicroScan): resistant | MIC (MRSA OU6 [4]; [11]): > 2 µg/mL | susceptibility interpretation (MRSA OU11 [5]; MRSA OU11, MicroScan): resistant | MIC (MRSA OU11 [5]; [12]): > 2 µg/mL

CC(C)(O/N=C(\C(=O)N[C@@H]1C(=O)N2C(C(=O)[O-])=C(C[n+]3ccccc3)CS[C@H]12)c1csc(N)n1)C(=O)O [ceftazidime]
susceptibility interpretation (PA OU19 [3]): resistant | MIC (PA OU19 [3]; [10]): 16 µg/mL (≈ 29.3 µM)

CC(=O)NC[C@H]1CN(c2ccc(N3CCOCC3)c(F)c2)C(=O)O1 [linezolid]
susceptibility interpretation (MRSA OU6 [4]; MRSA OU6, MicroScan): susceptible | MIC (MRSA OU6 [4]; [11]): 2 µg/mL (≈ 5.93 µM) | susceptibility interpretation (MRSA OU11 [5]; MRSA OU11, MicroScan): susceptible | MIC (MRSA OU11 [5]; [12]): 2 µg/mL (≈ 5.93 µM)

CC[C@H]1OC(=O)[C@H](C)[C@@H](O[C@H]2C[C@@](C)(OC)[C@@H](O)[C@H](C)O2)[C@H](C)[C@@H](O[C@@H]2O[C@H](C)C[C@H](N(C)C)[C@H]2O)[C@](C)(O)C[C@@H](C)C(=O)[C@H](C)[C@@H](O)[C@]1(C)O [erythromycin]
susceptibility interpretation (MRSA OU6 [4]; MRSA OU6, MicroScan): resistant | MIC (MRSA OU6 [4]; [11]): > 4 µg/mL | FICI (PA OU19 [6]; [13]): 0.26 | Outcome (PA OU19 [6]; [13]): Synergy | MIC Antibiotic with 16 μg/ml BPEI (PA OU19 [6]; PA OU19, with 16 μg/ml 600-Da BPEI): 2 µg/mL | MIC Antibiotic (MRSA OU6 [7]): over 2000 μg/mL | MIC Antibiotic (MRSA OU6 [7]; listed as Erythromycin): >2000 µg/mL | FICI (MRSA OU6 [7]; [14]): 0.26 | Outcome (MRSA OU6 [7]; [14]): Synergy | MIC Antibiotic with 16 μg/ml BPEI (MRSA OU6 [7]; MRSA OU6, with 16 μg/ml 600-Da BPEI): 8 µg/mL | susceptibility interpretation (MRSA OU11 [5]; MRSA OU11, MicroScan): resistant | MIC (MRSA OU11 [5]; [12]): > 4 µg/mL | MIC Antibiotic (MRSA OU11 [8]): over 2000 μg/mL | MIC Antibiotic (MRSA OU11 [8]; listed as Erythromycin): >2000 µg/mL | FICI (MRSA OU11 [8]; [15]): 0.31 | Outcome (MRSA OU11 [8]; [15]): Synergy

gentamicin
susceptibility interpretation (MRSA OU6 [4]; MRSA OU6, MicroScan): susceptible | MIC (PA OU19 [3]): 4 µg/mL | susceptibility interpretation (PA OU19 [3]): susceptible | susceptibility interpretation (MRSA OU11 [5]; MRSA OU11, MicroScan): susceptible

lipopolysaccharide [LPS]
TNF-α concentration released by HEKa cells [1]: ~30 pg/mL | IL-6 concentration released by HEKa cells [1]: ~350 pg/mL

NC[C@H]1O[C@H](O[C@H]2[C@H](O)[C@@H](O[C@H]3O[C@H](CO)[C@@H](O)[C@H](N)[C@H]3O)[C@H](N)C[C@@H]2N)[C@H](N)C[C@@H]1O [tobramycin]
susceptibility interpretation (PA OU19 [3]): susceptible | MIC (PA OU19 [3]; [10]): 4 µg/mL (≈ 8.56 µM)

CN[C@H](CC(C)C)C(=O)N[C@H]1C(=O)N[C@@H](CC(N)=O)C(=O)N[C@H]2C(=O)N[C@H]3C(=O)N[C@H](C(=O)N[C@H](C(=O)O)c4cc(O)cc(O)c4-c4cc3ccc4O)[C@H](O)c3ccc(c(Cl)c3)Oc3cc2cc(c3O[C@@H]2O[C@H](CO)[C@@H](O)[C@H](O)[C@H]2O[C@H]2C[C@](C)(N)[C@H](O)[C@H](C)O2)Oc2ccc(cc2Cl)[C@H]1O [vancomycin]
susceptibility interpretation (MRSA OU6 [4]; MRSA OU6, MicroScan): susceptible | MIC (MRSA OU6 [4]; MRSA): 2 µg/mL (≈ 1.38 µM) | susceptibility interpretation (MRSA OU11 [5]; MRSA OU11, MicroScan): susceptible | MIC (MRSA OU11 [5]; MRSA): 1 µg/mL (≈ 0.69 µM)

CN(C)[C@@H]1C(O)=C(C(N)=O)C(=O)[C@@]2(O)C(O)=C3C(=O)c4c(O)cccc4[C@@](C)(O)[C@H]3C[C@@H]12 [tetracycline]
MIC (MRSA OU6 [4]; [11]): ≤ 4 µg/mL | MIC (MRSA OU11 [5]; [12]): ≤ 4 µg/mL

C[C@H]1[C@H](NC(=O)/C(=N\OC(C)(C)C(=O)O)c2csc(N)n2)C(=O)N1S(=O)(=O)O [aztreonam]
susceptibility interpretation (PA OU19 [3]): resistant | MIC (PA OU19 [3]; [10]): 16 µg/mL (≈ 36.7 µM)

CCCCCCCCCC(=O)N[C@@H](Cc1c[nH]c2ccccc12)C(=O)N[C@H](CC(N)=O)C(=O)N[C@@H](CC(=O)O)C(=O)N[C@@H]1C(=O)NCC(=O)N[C@@H](CCCN)C(=O)N[C@@H](CC(=O)O)C(=O)N[C@H](C)C(=O)N[C@@H](CC(=O)O)C(=O)NCC(=O)N[C@H](CO)C(=O)N[C@@H]([C@H](C)CC(=O)O)C(=O)N[C@@H](CC(=O)c2ccccc2N)C(=O)O[C@@H]1C [daptomycin]
susceptibility interpretation (MRSA OU6 [4]; MRSA OU6, MicroScan): susceptible | MIC (MRSA OU6 [4]; [11]): ≤ 0.5 µg/mL | susceptibility interpretation (MRSA OU11 [5]; MRSA OU11, MicroScan): susceptible | MIC (MRSA OU11 [5]; [12]): ≤ 0.5 µg/mL

CO/N=C(\C(=O)N[C@@H]1C(=O)N2C(C(=O)[O-])=C(C[N+]3(C)CCCC3)CS[C@H]12)c1csc(N)n1 [cefepime]
susceptibility interpretation (PA OU19 [3]): resistant | MIC (PA OU19 [3]; [10]): 16 µg/mL (≈ 33.3 µM)

CCC[C@@H]1C[C@@H](C(=O)N[C@@H]([C@H]2O[C@H](SC)[C@H](O)[C@@H](O)[C@H]2O)[C@H](C)Cl)N(C)C1 [clindamycin]
MIC (MRSA OU6 [4]; [11]): > 4 µg/mL | MIC (MRSA OU11 [5]; [12]): > 4 µg/mL

CC[C@H]1OC(=O)[C@H](C)[C@@H](O[C@H]2C[C@@](C)(OC)[C@@H](O)[C@H](C)O2)[C@H](C)[C@@H](O[C@@H]2O[C@H](C)C[C@H](N(C)C)[C@H]2O)[C@](C)(O)C[C@@H](C)CN(C)[C@H](C)[C@@H](O)[C@]1(C)O [azithromycin]
growth inhibition by the combination with 600-Da BPEI [9]: inhibits growth
